What all share (format): cell-based, human
One assay relates to Akt and S6. Briefly: S6 and Akt phosphorylation by flow cytometry. Particulars: TLR7/8 activation with R848. Here is the method: We next asked which pathway(s) were acting upstream of NADPH oxidase to induce FcgRIIA shedding. […] Phosphorylation of Akt and S6 was determined by flow cytometry upon TLR7/8 activation. The experiment was repeated four times; combined results were compared using paired t test (pS6, P=0.042; pAkt, P=0.037). […] To confirm the role for PI3K in TLR-mediated activation of ROS and subsequent shedding of FcgRIIA, neutrophils were incubated with the PI3K inhibitor LY294002 prior to addition of TLR agonist. Blocking PI3K signaling abrogated TLR-mediated ROS generation, phosphorylation of ncf1 at S345 as well as shedding of FcgRIIA. Briefly, neutrophils, pre-treated with inhibitors of PI3K (LY294002, 10 μM) or NADPH oxidase (DPI, 25 μM), were activated with R848 and analyzed for ROS generation by flow cytometry using DHR123. […] Additionally, neutrophils were pre-treated with the PI3K inhibitor LY294002 (10 μM) and analyzed for R848-mediated shedding of FcgRIIA by flow cytometry. […]
Neutrophils were activated by R848 for 15 minutes, fixed and permeabilized according to manufacturer's instructions (BioLegend), and incubated with a specific antibody recognizing phosphorylated S235/236 in S6 (Cell Signaling) or phosphorylated S473 in Akt (BD Biosciences) for 60 minutes. pS6 and pAkt levels were analyzed by flow cytometry and expressed as percent positive cells as compared to non-stimulated cells.
A general note: Flow cytometry measures light scatter and fluorescence of single cells or particles in a stream.

For another assay, the system named is neutrophils. The assay can be described thus: Phagocytosis assay in neutrophils (flow cytometry).
The next assay concerns FcgRIIA on monocytes. The assay can be described thus: FcgRIIA and CD11b on monocytes (PBMCs with R848, neutrophils or neutrophil supernatant). Here is the method: Since we observed prominent protease-mediated shedding of FcgRIIA in neutrophils, we next asked if activated neutrophils could induce shedding of FcgRIIA in other immune cells. PBMCs were co-incubated with neutrophils (PMNs) in the presence of R848 and a pan-protease inhibitor. Levels of FcgRIIA on monocytes (CD14+), and pDCs (CD304+) were determined by flow cytometry and expressed as FcgRIIA (% of control) as compared to PBMCs incubated in medium in absence of neutrophils. […]
To determine if the loss of monocyte FcgRIIA was mediated through cell-cell interactions or due to a soluble neutrophil-derived factor, we added supernatant from TLR7/8-activated neutrophils to monocytes. Specifically, neutrophil supernatant, derived from non-stimulated (no, n=5) or R848-stimulated (R848, n=9) neutrophils, were added to monocytes in presence of indicated inhibitors (CMK; furin inhibitor, n=5, and Pan; pan-protease inhibitor, n=5) and monocyte FcgRIIA levels analyzed by flow cytometry. […]
Neutrophils and PBMCs were incubated at a 2:1 ratio (500,000 vs 250,000 cells) with the pan-protease inhibitor (1×) for 30 minutes followed by R848 (2 μg/mL) for an additional 60 minutes and analyzed for FcgR levels by flow cytometry. […]

Another assay has as its system monocytes. Briefly: Monocyte phagocytosis of RNP-ICs. The note with it: RNase exposure or R848 priming.
[1] abbreviates: neutrophils stimulated with R848 before stimuli, vs no R848.

From patent US20260133193A1, “COMPOSITIONS AND METHODS FOR TREATING INFLAMMATORY DISEASES” (University of Washington, priority 2018, published 2026) come the findings set out here.

As to `CCOCc1nc2c(N)nc3ccccc3c2n1CC(C)(C)O` [R848], the “levels of phosphorylated Akt and S6” value in the assay with Akt and S6 was “induced increased levels of phosphorylated Akt and S6”. Also, in the assay on neutrophils (setting [1]), the “uptake of RNase-treated RNP-ICs and HAGG by neutrophils” value is “significantly decreased uptake of ICs as well as heat-aggregated IgG (HAGG)”; the “uptake of beads and zymosan by neutrophils” value was “increased uptake of beads and zymosan”. Besides, the “binding and uptake of RNP-ICs by neutrophils” value with neutrophils (with or without R848, followed by cytochalasin B 5 μM) was “suppressed both IC-mediated binding and subsequent phagocytosis”. Further, the “monocyte cell surface CD11b” value in the assay on FcgRIIA on monocytes (R848) is reported as “up-regulation of cell surface CD11b”. In addition, the “monocyte cell surface FcgRIIA levels” value with FcgRIIA on monocytes (flow cytometry) is on record as “unchanged”. The “monocyte phagocytosis of RNP-ICs” value with monocytes is listed as “not affected”.
